Legend:
Format in all cases: in vivo
Alopecurus myosuroides = experiment: Herbicidal post-emergence action; details: post-emergence method; for herbicidal effect against ALOMY (Alopecurus myosuroides): 80 g/ha; for pest or weed control at 80 g/ha: Alopecurus myosuroides, 504 h, read-out: herbicidal effect against ALOMY (Alopecurus myosuroides)
Description: (§1) Seeds of monocotylidonous and dicotylidonous weed and crop plants are placed in sandy loam in wood fibre pots, covered with soil and cultivated in a greenhouse under good growth conditions. Two to three weeks after sowing, the test plants are treated at the one-leaf stage. The test compounds, formulated as wettable powders (WP), are then with a water application rate of 600 l/ha (converted), with 0.2% of wetting agent added, sprayed onto the green parts of the plants in different amounts. After the test plants have been kept in the greenhouse under optimum growth conditions for about three weeks, the effect of the preparations is assessed visually in comparison to untreated controls (herbicidal effect in percent: 100% effect=the plants have died, 0% effect=like control plants).

Lolium multiflorum = experiment: Herbicidal post-emergence action; details: post-emergence method; for herbicidal effect against LOLMU (Lolium multiflorum): 80 g/ha; for pest or weed control at 80 g/ha: Lolium multiflorum, 504 h, read-out: herbicidal effect against LOLMU (Lolium multiflorum)
Description: as §1

Echinocloa crus-galli = experiment: Herbicidal post-emergence action; details: post-emergence method; for herbicidal effect against ECHCG (Echinochloa crus-galli): 80 g/ha; for pest or weed control at 80 g/ha: Echinochloa crus-galli, 504 h, read-out: herbicidal effect against ECHCG (Echinochloa crus-galli)
Description: as §1

Setaria viridis = experiment: Herbicidal post-emergence action; details: post-emergence method; for herbicidal effect against SETVI (Setaria viridis): 80 g/ha; for pest or weed control at 80 g/ha: Setaria viridis, 504 h, read-out: herbicidal effect against SETVI (Setaria viridis)
Description: as §1

[1] = test system: monocotylidonous and dicotylidonous weed and crop plants; experiment: Herbicidal post-emergence action (other test plants); details: post-emergence method; for herbicidal effect against AVEFA (Avena fatua): 80 g/ha; for pest or weed control at 80 g/ha: 504 h, Avena fatua, read-out: herbicidal effect against AVEFA (Avena fatua)
Description: as §1

SMILES | herbicidal effect against ALOMY (Alopecurus myosuroides) (Alopecurus myosuroides) | herbicidal effect against LOLMU (Lolium multiflorum) (Lolium multiflorum) | herbicidal effect against ECHCG (Echinochloa crus-galli) (Echinocloa crus-galli) | herbicidal effect against SETVI (Setaria viridis) (Setaria viridis) | herbicidal effect against AVEFA (Avena fatua) [1] | pest or weed control at 80 g/ha (Alopecurus myosuroides) | pest or weed control at 80 g/ha (Lolium multiflorum) | pest or weed control at 80 g/ha (Echinocloa crus-galli) | pest or weed control at 80 g/ha (Setaria viridis) | pest or weed control at 80 g/ha [1]
CCc1cc(C)cc(CC)c1C1=C(O)C2CC3(CC2C1=O)OCCCS3 (mixture of isomers) [I-a-20] | 90% | 100% | 100% | 90% | 80% |  |  |  |  | 
Cc1cc(C)c(C2=C(OC(=O)CC(C)C)C3CC4(COC(C)(C)O4)CC3C2=O)c(C)c1 (mixture of isomers) [I-b-44] | 80% | 100% | 80% | 60% | 80% |  |  |  |  | 
COCC(=O)OC1=C(c2c(C)cc(C)cc2C)C(=O)C2CC3(COC(C)(C)O3)CC12 (mixture of isomers) [I-b-47] | 90% | 90% | 100% | 0% | 80% |  |  |  |  | 
CCC(=O)OC1=C(c2c(C)cc(C)cc2C)C(=O)C2CC3(COC(C)(C)O3)CC12 (mixture of isomers) [I-b-50] | 100% | 100% | 90% | 80% | 0% |  |  |  |  | 
CCOC(=O)OC1=C(c2c(C)cc(C)cc2C)C(=O)C2CC3(CC12)OCC(C)CO3 (mixture of isomers) [I-c-48] | 20% | 100% | 90% | 80% | 20% |  |  |  |  | 
Cc1cc(C)c(C2=C(OC(=O)OC(C)C)C3CC4(COC(C)(C)O4)CC3C2=O)c(C)c1 (mixture of isomers) [I-c-55] | 80% | 100% | 100% | 30% | 20% |  |  |  |  | 
CCOC(=O)OC1=C(c2c(C)cc(C)cc2C)C(=O)C2CC3(CC12)OCCCO3 (racemic) [I-c-47] | 100% | 100% | 100% | 60% | 90% |  |  |  |  | 
COC(=O)OC1=C(c2c(C)cc(C)cc2C)C(=O)C2CC3(CC12)OCCCCO3 (racemic) [I-c-49] | 100% | 100% | 90% | 80% | 80% |  |  |  |  | 
COC(=O)OC1=C(c2c(C)cc(C)cc2C)C(=O)C2CC(=O)CC12 (racemic) [I-c-57] | 90% | 0% | 100% | 90% | 0% |  |  |  |  | 
CCOC(=O)OC1=C(c2c(C)cc(C)cc2C)C(=O)C2CC(=O)CC12 (racemic) [I-c-58] | 0% | 0% | 100% | 100% | 0% |  |  |  |  | 
C#CCON=C1CC2C(=O)C(c3c(C)cc(C)cc3C)=C(OC(=O)OC)C2C1 (racemic) [I-c-59] | 0% | 60% | 100% | 20% | 0% |  |  |  |  | 
C#CCON=C1CC2C(=O)C(c3c(C)cc(C)cc3C)=C(OC(=O)OCC)C2C1 (racemic) [I-c-60] | 20% | 80% | 100% | 0% | 0% |  |  |  |  | 
CCc1cc(C)cc(CC)c1C1=C(O)[C@H]2CC3(C[C@H]2C1=O)SCCS3 (relative stereo) [I-a-16] | 30% | 80% | 90% | 80% | 30% |  |  |  |  | 
CCc1cc(C)cc(CC)c1C1=C(O)[C@H]2CC3(C[C@H]2C1=O)SCCCS3 (relative stereo) [I-a-17] | 30% | 90% | 90% | 80% | 40% |  |  |  |  | 
C#CCON=C1C[C@@H]2C(O)=C(c3c(CC)cc(C)cc3CC)C(=O)[C@@H]2C1 (relative stereo) [I-a-33] | 100% | 100% | 100% | 90% | 0% |  |  |  |  | 
Cc1cc(C)c(C2=C(O)[C@H]3CC4(C[C@H]3C2=O)OCCCO4)c(C)c1 (relative stereo) [I-a-37] | 60% | 100% | 100% | 60% | 90% |  |  |  |  | 
CCOC(=O)OC1=C(c2c(CC)cc(C)cc2CC)C(=O)[C@@H]2CC3(C[C@H]12)SCCS3 (relative stereo) [I-c-15] | 90% | 90% | 90% | 90% | 60% |  |  |  |  | 
CCc1cc(C)cc(CC)c1C1=C(O)[C@H]2CC(=O)C[C@H]2C1=O (stereo in doubt) [I-a-4, 2-(2,6-diethyl-4-methylphenyl)-3-hydroxy-3a,4,6,6a-tetrahydropentalene-1,5-dione] |  |  |  |  |  | 60% | 20% | 100% | 100% | 30%
CCc1cc(C)cc(CC)c1C1C(=O)[C@H]2C/C(=N\OC)C[C@H]2C1=O (some centres unmarked) [I-a-18] |  |  |  |  |  | 90% | 100% | 100% | 90% | 60%
C#CCON=C1CC2C(=O)C(c3c(C)cc(C)cc3C)=C(O)C2C1 (centres unmarked) [I-a-43] | 20% | 40% | 90% | 40% | 0% |  |  |  |  | 
CON=C1CC2C(=O)C(c3c(C)cc(C)cc3C)=C(O)C2C1 (centres unmarked) [I-a-44] | 20% | 20% | 100% | 80% | 0% |  |  |  |  | 
COc1cc(C)cc(C)c1C1=C(O)C2CC(=O)CC2C1=O (centres unmarked) [I-a-46] | 0% | 0% | 100% | 40% | 0% |  |  |  |  | 
